Measurements taken from patent US20230399359A1, “TETRAPEPTIDES, COMPOSITIONS COMPRISING THEM, AND THEIR COSMETIC USE” (Sederma, priority 2020, published 2023).
Residues, ends and D or L forms follow the SMILES beside them. *: point of attachment. Palmitoyl = CCCCCCCCCCCCCCCC(=O)*

Columns and labels:
Type in all cases: cell-based
[1] = system: Fibrillin 1; test: Immunofluorescence assay of Fibrillin 1 formation by normal human fibroblasts; conditions: NHF, five-day incubation, coverage density by image analysis
Procedure: Normal human fibroblasts (NHF) are cultured for at least 24 hours in fibroblast growth medium containing serum. Once confluence was reached, the cells are seeded, and the actives and corresponding controls diluted in a culture medium are added. At the end of a five-day incubation period, the supernatant is removed, the cells are washed with PBS and fixed. The cells are then incubated with the primary Fibrillin 1 monoclonal antibody (11C1.3) (Thermo Fisher) diluted in blocking buffer at a concentration of 1:200. The cells are incubated. The primary antibody is removed, and the cells are washed with PBS. The secondary antibody was added at a dilution of 1:1000 in blocking buffer, then removed and the cells are washed with PBS. The formation of Fibrillin 1 by the cells is visualized using a fluorescence microscope. The obtained images are analyzed using an image processing software assigning a numerical value to the coverage density.

[2] = system: Fibronectine; test: ELISA assay of fibronectin synthesis in normal human fibroblast culture supernatants; conditions: NHF, 72 h contact, vs excipient control
Procedure: (§1) Normal human fibroblasts (NHF) in culture are brought into contact with the products to be tested or their excipient (negative control) for 72 h. At the end of the contact, the culture supernatants are removed, and the syntheses of the dermal macromolecules are estimated by ELISA assays. An estimate of cell viability is carried out by Hoechst assay to weight the obtained data.

[3] = system: Decorine; test: ELISA assay of decorin synthesis in normal human fibroblast culture supernatants; conditions: NHF, 72 h contact, vs excipient control
Procedure: as §1

[4] = system: Collagen I (PIP); test: ELISA assay of collagen I synthesis (PIP assay) in normal human fibroblast culture supernatants; conditions: NHF, 72 h contact, vs excipient control, weighted by Hoechst viability
Procedure: as §1
Collagen I is evaluated via the PIP assay (carboxy-terminal propeptide of procollagen type I) which is a peptide fragment resulting from the enzymatic degradation of procollagen when the latter is excreted outside the fibroblast (therefore in the culture medium where the assay is carried out).

[5] = system: Collagen IV; test: ELISA assay of collagen IV synthesis in normal human fibroblast culture supernatants; conditions: NHF, 72 h contact, vs excipient control
Procedure: as §1

| Molecule | Fibrillin 1 (significance) ([1]; 12.5 ppm) | Fibronectine ([2]; concentrations of 5 to 15 ppm) | Decorine ([3]; concentrations of 5 to 15 ppm) | Collagen I (PIP) ([4]; concentrations of 5 to 15 ppm) | Collagen IV ([5]; concentrations of 5 to 15 ppm) | Fibrillin 1 (significance) ([1]; 2 ppm) | Fibronectine ([2]; concentrations of 2 to 3 ppm) | Decorine ([3]; concentrations of 2 to 3 ppm) | Collagen I (PIP) ([4]; concentrations of 2 to 3 ppm) | Collagen IV ([5]; concentrations of 2 to 3 ppm) |
| --- | --- | --- | --- | --- | --- | --- | --- | --- | --- | --- |
| CCCCCCCCCCCCCCCC(=O)N[C@@H](C)C(=O)N[C@H](C(=O)N1CCC[C@H]1C(=O)NCC(=O)O)C(C)C [Pal-AVPG-OH, palmitoyl-alanyl-valyl-prolyl-glycine] (Palmitoyl-AVPG-OH) | +121% (p < 0.05) | +38% | +20% | +94% | +35% | – | – | – | – | – |
| Pal-VPGA-OH: N-palmitoyl tetrapeptide Val-Pro-Gly-Ala with free C-terminal acid, prepared by the same synthetic process (Palmitoyl-VPGA-OH; SMILES CCCCCCCCCCCCCCCC(=O)N[C@H](C(=O)N1CCC[C@H]1C(=O)NCC(=O)N[C@@H](C)C(=O)O)C(C)C) | – | – | – | – | – | +92% (p < 0.05) | +115% | +69% | +42% | +49% |
